In brackets after ≈: the same amount, converted by molar mass.
How the values were obtained:
Type in all cases: functional
[1] = test system: Mycobacterium tuberculosis; assay: Antimicrobial activity against Mycobacterium tuberculosis H37Rv ATCC 27294 harboring DprE1 C387G mutant assessed as growth inhibition after 5 days by microdilution method
[2] = test system: Mycobacterium tuberculosis; assay: Antimicrobial activity against Mycobacterium tuberculosis H37Rv ATCC 27294 harboring DprE1 C387S mutant assessed as growth inhibition after 5 days by microdilution method
[3] = test system: Mycobacterium tuberculosis; assay: Antimicrobial activity against Mycobacterium tuberculosis H37Rv ATCC 27294 harboring DprE1 Y314H mutant assessed as growth inhibition after 5 days by microdilution method
[4] = test system: Mycobacterium tuberculosis; assay: Antimicrobial activity against Mycobacterium tuberculosis H37Rv ATCC 27294 overexpressing DprE1 assessed as growth inhibition after 5 days by microdilution method; settings: H37Rv ATCC 27294, 120 h

Structure (SMILES) | MIC [1] | MIC [2] | MIC [3] | MIC [4]
COc1ncnc(Cn2cc(C(=O)NCCF)c3ncc(C)cc32)c1C | 0.39 µM (≈ 0.139 µg/mL) | 0.39 µM (≈ 0.139 µg/mL) | >200 µM | 6.25 µM (≈ 2.23 µg/mL)
COc1ncnc(Cn2cc(C(=O)NCCF)c3ncccc32)c1C | 0.78 µM (≈ 0.268 µg/mL) | 3.12 µM (≈ 1.07 µg/mL) | >100 µM | 50 µM (≈ 17.2 µg/mL)
COc1ncnc(Cn2cc(C(=O)NCCO)c3ncc(C)cc32)c1C [TBA-7371] | 0.78 µM (≈ 0.277 µg/mL) | 0.39 µM (≈ 0.139 µg/mL) | >200 µM | 100 µM (≈ 35.5 µg/mL)

Source: ChEMBL document CHEMBL3108774, “Azaindoles: noncovalent DprE1 inhibitors from scaffold morphing efforts, kill Mycobacterium tuberculosis and are efficacious in vivo” (J Med Chem, 2013)
